Reference: patent publication US10213415B2, “Compounds as opioid receptor modulators” (JANSSEN PHARMACEUTICA NV, priority 2004, dated 2019)
Read-outs that look alike come from different tables or passages of the source.

Experiments:
human mu opioid receptor = molecular target: T1, human mu opioid receptor (Homo sapiens, UniProt P35372); assay: Human Mu Opioid Receptor Binding Assay (CHO membranes, 3H-Damgo); conditions: read-out: hKi μ
T1 construct: purchased Perkin Elmer RBHOMM400UA; host or cells: Chinese Hamster Ovary cells (recombinant expression)
Protocol: Membranes from Chinese Hamster Ovary cells expressing the human […] opioid receptor (Perkin Elmer #RBHOMM400UA) are homogenized in assay buffer (50 mM Tris, pH 7.5 with 5 mM MgCl2) using a glass tissue grinder, Teflon pestle and a Steadfast Stirrer (Fisher Scientific). The concentration of membranes is adjusted to 300 μg/mL in assay buffer and 100 μL is dispensed into each well of the assay plate, a 96 well round bottom polypropylene plate. Compounds to be tested are solubilized in DMSO (Pierce), 10 mM, then diluted in assay buffer to 6× the desired final concentration. The ligand, ^3H-Damgo (Perkin Elmer #NET-902) is also diluted in assay buffer to 3.6 nM. In a second 96 well round bottom polypropylene plate, known as the premix plate, 60 μL of the 6× compound is combined with 60 μL of 3.6 nM ^3H-Damgo. From this premix plate 50 μL is transferred to the assay plate containing the membranes, in duplicate. The assay plate is incubated for 2 h at room temperature. A GF/C 96 well filter plate (Perkin Elmer #6005174) is pretreated with 0.3% polyethylenimine for 30 min. The contents of the assay plate are filtered through the filter plate using a Packard Filtermate Harvester, and washed 3 times with 0.9% saline that is 4° C. The filter plate is dried, the underside sealed, and 30 μL Microscint20 (Packard #6013621) added to each well. A Topcount-NXT Microplate Scintillation Counter (Packard) is used to measure emitted energies in the range of 2.9 to 35 KeV. […] Nonspecific binding is determined in the presence of 1 μM unlabelled Damgo (Tocris #1171).

[1] = molecular target: T2, human delta subtype 2 opioid receptor (Homo sapiens, UniProt P41143); assay: Human Delta Opioid Receptor Binding Assay (CHO membranes, 3H-Naltrindole); conditions: read-out: hKi δ
T2 construct: purchased Perkin Elmer RBHODM400UA; host or cells: Chinese Hamster Ovary cells (recombinant expression)
Protocol: This assay is designed to test the ability of a compound to interfere with the binding of tritiated Naltrindole to the human delta subtype 2 opioid receptor. Membranes from Chinese Hamster Ovary cells expressing the human delta subtype 2 opioid receptor (Perkin Elmer #RBHODM400UA) are homogenized in assay buffer (50 mM Tris, pH 7.5 with 5 mM MgCl2) using a glass tissue grinder, Teflon pestle and a Steadfast Stirrer (Fisher Scientific). The concentration of membranes is adjusted to 100 μg/mL in assay buffer and 100 μL is dispensed into each well of the assay plate, a 96 well round bottom polypropylene plate. Compounds to be tested are solubilized in DMSO (Pierce), 10 mM, then diluted in assay buffer to 6× the desired final concentration. The ligand, ^3H-Naltrindole (Perkin Elmer #NET-1065) is also diluted in assay buffer to 6 nM. In a second 96 well round bottom polypropylene plate, known as the premix plate, 60 μL of the 6× compound is combined with 60 μL of 6 nM ^3H-Naltrindole. From this premix plate 50 μL is transferred to the assay plate containing the membranes, in duplicate. The assay plate is incubated for 30 min at room temperature. A GF/C 96 well filter plate (Perkin Elmer #6005174) is pretreated with 0.3% polyethylenimine for 30 min. The contents of the assay plate are filtered through the filter plate using a Packard Filtermate Harvester, and washed 3 times with 0.9% saline that is 4° C. The filter plate is dried, the underside sealed, and 30 μL Microscint20 (Packard #6013621) added to each well. A Topcount-NXT Microplate Scintillation Counter (Packard) is used to measure emitted energies in the range of 2.9 to 35 KeV. Results are compared to maximum binding, wells receiving no inhibitors. Nonspecific binding is determined in the presence of 1 μM unlabelled Naltrindole (Sigma #N115).

[2] = system: novel environment-stressed mice; assay: In Vivo Assay-Stress-Induced Fecal Output (Fecal Output for 1 hr); design: species or system mouse; conditions: 30 mg/kg oral, 1 hr; for Fecal Output (# pellets) cpd: novel environment-stressed mice; for response vs control in vivo at 30 mg/kg: Mus musculus, po, 1 h
Excerpt: This assay evaluates the fecal output in novel environment-stressed mice to that of acclimated controls.
Methods: Adult, male, Crl:CD-1(ICR) mice, weighing ˜30-35 g were used in these studies, with a minimum of 10 mice per dose group. One group of mice was assigned as acclimated, or “non-stressed” controls. These control mice were transported from colony housing, where they were housed 3/cage in polycarbonate cages with access to food and water ad lib. to the procedure room. The mice were removed from their home cages and individually housed in 20 cm wide×20 cm deep×15 cm tall cages, equipped with a wire mesh bottom where they remained for a 16-18 hr period of acclimation to their novel environment. Mice were allowed access to food and water ad lib. during acclimation. The other groups of mice were assigned as non-acclimated, or “stressed” treatment groups. Each mouse in each group was weighed and vehicle, or test compound, was intragastrically administered by oral intubation in 0.5% methylcellulose. Mice were allowed access to water only ad lib. during the test period. After compound administrations, acclimated (control) as well as non-acclimated (stressed) mice were individually housed in a 20 cm wide×20 cm deep×15 cm tall cage, with a wire mesh bottom. An absorbant cardboard is placed beneath the cages. The number of fecal pellets excreted by each mouse was determined at hourly intervals following placement of the mice in the individual cages. Raw Data=# of fecal pellets/mouse/hr. […]

[3] = relative to acclimated control, read-out: Fecal Output cpd % control
[4] = relative to novel environment stress (NES) vehicle group, read-out: Fecal Output cpd % NES

T1 sequence (P35372 whole entry): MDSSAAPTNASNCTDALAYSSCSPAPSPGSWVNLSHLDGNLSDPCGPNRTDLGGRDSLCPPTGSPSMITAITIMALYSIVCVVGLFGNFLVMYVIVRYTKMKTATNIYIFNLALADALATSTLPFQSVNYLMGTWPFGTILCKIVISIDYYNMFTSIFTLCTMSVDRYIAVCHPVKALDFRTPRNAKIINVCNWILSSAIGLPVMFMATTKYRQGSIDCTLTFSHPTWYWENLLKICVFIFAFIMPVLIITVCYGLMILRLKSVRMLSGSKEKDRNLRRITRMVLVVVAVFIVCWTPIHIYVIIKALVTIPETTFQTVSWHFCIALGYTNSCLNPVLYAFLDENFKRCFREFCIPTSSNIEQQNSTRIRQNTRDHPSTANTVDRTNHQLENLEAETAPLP
T2 sequence (P41143 whole entry): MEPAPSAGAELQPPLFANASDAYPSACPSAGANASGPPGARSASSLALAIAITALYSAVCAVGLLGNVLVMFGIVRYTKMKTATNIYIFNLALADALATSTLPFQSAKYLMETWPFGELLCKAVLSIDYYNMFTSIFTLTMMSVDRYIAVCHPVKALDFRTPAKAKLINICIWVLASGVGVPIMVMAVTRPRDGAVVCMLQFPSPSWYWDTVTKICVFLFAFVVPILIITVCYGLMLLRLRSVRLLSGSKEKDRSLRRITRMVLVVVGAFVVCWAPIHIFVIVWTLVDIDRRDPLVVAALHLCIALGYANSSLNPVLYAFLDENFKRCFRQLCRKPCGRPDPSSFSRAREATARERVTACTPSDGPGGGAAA

| SMILES | Ki (human mu opioid receptor) [nM] | Ki [1] [nM] | Fecal Output (# pellets) cpd [2] [pellets] | response vs control in vivo at 30 mg/kg [2, 3] [%] | response vs control in vivo at 30 mg/kg [2, 4] [%] | Fecal Output cpd % control ([2]; relative to acclimated control) [%] | Fecal Output cpd % NES ([2]; relative to novel environment stress (NES) vehicle group) [%] |
| --- | --- | --- | --- | --- | --- | --- | --- |
| Cc1cc(C(N)=O)cc(C)c1C[C@H](N)C(=O)N(Cc1nc(-c2ccccc2)c[nH]1)[C@H](C)c1ccccc1 [Cpd 94] | 4.1 | 403 | 9.4 | 348 | 103 | – | – |
| Cc1cc(C(N)=O)cc(C)c1C[C@H](N)C(=O)N(C)[C@H](C)c1nc(-c2ccccc2)c[nH]1 [Cpd 144] | 1.3 | 251 | 11.5 | 311 | 84.6 | – | – |
| Cc1cc(O)cc(C)c1C[C@H](N)C(=O)N(Cc1ccncc1)[C@@H](C)c1nc(-c2ccccc2)c[nH]1 [Cpd 57] | 0.66 | 2.2 | 7.6 | 195 | 53.9 | – | – |
| Cc1cc(O)cc(C)c1C[C@H](N)C(=O)N(Cc1ccc(Cl)cc1Cl)[C@@H](C)c1nc(-c2ccccc2)c[nH]1 [Cpd 103] | 23 | 9.7 | 10.2 | 140 | 79.1 | – | – |
| Cc1cc(O)cc(C)c1C[C@H](N)C(=O)N(Cc1nc(-c2cccc(C(=O)O)c2)c(C)[nH]1)C(C)C [Cpd 133] | 11.5 | 108 | 9.9 | 180 | 81.8 | – | – |
| Cc1cc(C(N)=O)cc(C)c1C[C@H](N)C(=O)N(C(C)c1ccccc1)[C@@H](C)c1nc(-c2ccccc2)c[nH]1 (single isomer, unassigned) [Cpd 112] | 9.5 | 135 | 7.2 | – | – | 100.0 | 69.9 |
| CC(=O)Nc1ccc(CN(C(=O)[C@@H](N)Cc2c(C)cc(O)cc2C)[C@@H](C)c2nc(-c3ccccc3)c[nH]2)cc1 [Cpd 79] | 1.7 | 11.5 | 7.1 | 197 | 97.3 | – | – |
| Cc1cc(C(N)=O)cc(C)c1C[C@H](N)C(=O)N(Cc1nc(-c2ccccc2)c[nH]1)[C@@H](C)c1ccccc1 [Cpd 95] | 7.8 | 278 | 8.5 | 315 | 93.4 | – | – |
| COc1ccccc1CN(C(=O)[C@@H](N)Cc1c(C)cc(O)cc1C)[C@@H](C)c1nc(-c2ccccc2)c[nH]1 [Cpd 96] | 9.7 | 14.6 | – | – | – | – | – |
| Cc1cc(O)cc(C)c1CC(N)C(=O)Oc1cc(C)c(C[C@H](N)C(=O)N(C(C)C)[C@@H](CC(C)C)c2nc(-c3ccccc3)c[nH]2)c(C)c1 (some centres unmarked) [Cpd 139] | 58 | 1260 | – | – | – | – | – |
| Cc1cc(O)cc(C)c1C[C@H](N)C(=O)N(Cc1ccc(O)cc1)[C@@H](C)c1nc(-c2ccccc2)c[nH]1 [Cpd 81] | 1.7 | 15.7 | – | – | – | – | – |
| Cc1cc(O)cc(C)c1C[C@H](N)C(=O)N(Cc1ccccc1)[C@@H](CC(C)C)c1nc(-c2ccccc2)c[nH]1 [Cpd 104] | 100 | 484 | – | – | – | – | – |
| Cc1cc(O)cc(C)c1C[C@H](N)C(=O)N(Cc1nc(-c2cccc(Cl)c2)c(C)[nH]1)C(C)C [Cpd 70] | 2.6 | 85 | – | – | – | – | – |
| Cc1cc(O)cc(C)c1C[C@H](N)C(=O)N(Cc1nc(-c2cccc(F)c2)c(C)[nH]1)C(C)C [Cpd 116] | 0.54 | 30.3 | – | – | – | – | – |
| COc1cccc(-c2nc(CN(C(=O)[C@@H](N)Cc3c(C)cc(O)cc3C)C(C)C)[nH]c2C)c1 [Cpd 142] | 8.2 | 454 | – | – | – | – | – |
| Cc1cc(C(N)=O)cc(C)c1C[C@H](N)C(=O)N(CCCc1ccccc1)[C@@H](C)c1nc(-c2ccccc2)c[nH]1 [Cpd 108] | 23.5 | 43.3 | – | – | – | – | – |

| SMILES | Ki (human mu opioid receptor) [nM] | Ki [1] [nM] | Fecal Output (# pellets) cpd [2] [pellets] | response vs control in vivo at 30 mg/kg [2, 3] [%] | response vs control in vivo at 30 mg/kg [2, 4] [%] | Fecal Output cpd % control ([2]; relative to acclimated control) [%] | Fecal Output cpd % NES ([2]; relative to novel environment stress (NES) vehicle group) [%] |
| --- | --- | --- | --- | --- | --- | --- | --- |
| Cc1cc(O)cc(C)c1C[C@H](N)C(=O)N(Cc1nc(-c2ccc(N(C)C)cc2)c(C)[nH]1)C(C)C [Cpd 66] | 6.5 | 550 | – | – | – | – | – |
| Cc1cc(O)cc(C)c1C[C@H](N)C(=O)N(Cc1nc(-c2cc(F)cc(F)c2)c(C)[nH]1)C(C)C [Cpd 126] | 7.8 | 164 | – | – | – | – | – |
| Cc1cc(O)cc(C)c1C[C@H](N)C(=O)N(C(C)C)[C@@H](Cc1cccc(C(N)=O)c1)c1nc(-c2ccccc2)c[nH]1 [Cpd 121] | 25.3 | 182 | – | – | – | – | – |
| Cc1cc(O)cc(C)c1C[C@H](N)C(=O)N(Cc1nc(-c2cc(F)ccc2F)c(C)[nH]1)C(C)C [Cpd 61] | 3 | 243 | – | – | – | – | – |
| Cc1cc(O)cc(C)c1CC(N)C(=O)N(Cc1ccccc1)C(C)c1nc(-c2ccc(F)cc2)c[nH]1 (centres unmarked) [Cpd 83] | 4.67 | 48 | – | – | – | – | – |
| Cc1cc(O)cc(C)c1C[C@H](N)C(=O)N(C(C)C)[C@@H](Cc1ccccc1)c1nc(-c2ccccc2)c[nH]1 [Cpd 159] | 8.6 | 400 | – | – | – | – | – |
| Cc1cc(C(N)=O)cc(C)c1C[C@H](N)C(=O)N(CCc1ccccc1)[C@H](C)c1nc(-c2ccccc2)c[nH]1 [Cpd 110] | 191 | 1400 | – | – | – | – | – |
| Cc1[nH]c(CN(C(=O)[C@@H](N)Cc2ccc(O)cc2)C(C)C)nc1-c1ccccc1 [Cpd 154] | 1 | > 10000 | – | – | – | – | – |
| Cc1cc(O)cc(C)c1C[C@H](N)C(=O)N(Cc1nc(-c2ccc(F)cc2F)c(C)[nH]1)C(C)C [Cpd 71] | 0.57 | 102 | – | – | – | – | – |
| Cc1cc(O)cc(C)c1C[C@H](N)C(=O)N(C(C)C)[C@@H](COCc1ccccc1)c1nc(-c2ccccc2)c[nH]1 [Cpd 138] | 104 | 1180 | – | – | – | – | – |
| CC(C)[C@@H](c1nc(-c2ccccc2)c[nH]1)N(C(=O)[C@@H](N)Cc1ccc(O)cc1)C(C)C [Cpd 161] | > 1000 | > 10000 | – | – | – | – | – |
| Cc1cc(O)cc(C)c1C[C@H](N)C(=O)N(Cc1ccc2ccccc2c1)[C@@H](C)c1nc(-c2ccccc2)c[nH]1 [Cpd 100] | 20 | 88 | – | – | – | – | – |
| COC(=O)c1cccc(CN(C(=O)[C@@H](N)Cc2c(C)cc(O)cc2C)[C@@H](C)c2nc(-c3ccccc3)c[nH]2)c1 [Cpd 52] | 12.1 | 66 | – | – | – | – | – |
| CC(C)N(C(=O)[C@@H](N)Cc1ccc(O)cc1)[C@@H](Cc1ccccc1)c1nc(-c2ccccc2)c[nH]1 [Cpd 158] | 0.23 | > 10000 | – | – | – | – | – |
| Cc1cc(O)cc(C)c1C[C@H](N)C(=O)N(C(C)C)[C@@H](C)c1nc(-c2ccc(F)cc2)c[nH]1 [Cpd 84] | 1.1 | 9.6 | – | – | – | – | – |
